Measurements: ChEMBL document CHEMBL4311982, “Discovery of novel, potent, isosteviol-based antithrombotic agents” (Eur J Med Chem, 2019)

Tests used:
Trypsin = Trypsin (Homo sapiens, UniProt P07477+P07478+P35030); experiment: Inhibition of human trypsin using S-2222 as substrate incubated for 15 mins followed by substrate addition and measured after 1 hr by chromogenic assay; format: protein assay
Plasma kallikrein = Plasma kallikrein (Homo sapiens, UniProt P03952); experiment: Inhibition of human kallikrein using S-2302 as substrate incubated for 15 mins followed by substrate addition and measured after 1 hr by chromogenic assay
Chain of Plasma kallikrein (P03952 20-390 limits assumed): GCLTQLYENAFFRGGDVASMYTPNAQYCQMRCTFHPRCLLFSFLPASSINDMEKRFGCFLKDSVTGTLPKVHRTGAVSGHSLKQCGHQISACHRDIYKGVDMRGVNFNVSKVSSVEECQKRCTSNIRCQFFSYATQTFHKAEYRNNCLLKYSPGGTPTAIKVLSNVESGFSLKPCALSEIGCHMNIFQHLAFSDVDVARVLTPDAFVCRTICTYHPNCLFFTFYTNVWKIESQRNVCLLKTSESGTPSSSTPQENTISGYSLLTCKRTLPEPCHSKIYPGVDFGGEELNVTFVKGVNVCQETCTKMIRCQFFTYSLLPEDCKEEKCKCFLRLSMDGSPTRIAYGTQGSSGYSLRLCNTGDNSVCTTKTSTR
Chain of Plasma kallikrein (P03952 391-638 limits assumed): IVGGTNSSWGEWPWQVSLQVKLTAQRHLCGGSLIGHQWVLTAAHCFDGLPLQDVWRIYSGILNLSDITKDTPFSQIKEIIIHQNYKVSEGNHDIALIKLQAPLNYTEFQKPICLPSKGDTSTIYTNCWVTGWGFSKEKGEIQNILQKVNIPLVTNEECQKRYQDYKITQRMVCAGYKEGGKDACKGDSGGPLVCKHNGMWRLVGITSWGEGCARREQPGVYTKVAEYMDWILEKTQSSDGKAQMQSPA

[1] = Volume of distribution in Wistar rat at 22 umol/kg, po measured upto 24 hrs by LC-MS/MS analysis; format: ADME, organism-based; conditions: in vivo
[2] = AUC (0 to infinity) in Wistar rat at 6.6 umol/kg, iv measured upto 24 hrs by LC-MS/MS analysis; format: ADME, organism-based; design: dose 6.6 umol/kg, time infinity, route intravenous; conditions: in vivo
Rattus norvegicus [3] = species on record: Rattus norvegicus; further: test concentration or dose not given here
[4] = Clearance in Wistar rat at 6.6 umol/kg, iv measured upto 24 hrs by LC-MS/MS analysis; format: ADME, organism-based; conditions: in vivo
Coagulation factor IX = Coagulation factor IX (Homo sapiens, UniProt P00740); experiment: Inhibition of human activated Factor IX using spectrozyme F IXa as substrate incubated for 15 mins followed by substrate addition and measured after 1 hr by chromogenic assay
Chain of Coagulation factor IX (P00740 47-191 limits assumed): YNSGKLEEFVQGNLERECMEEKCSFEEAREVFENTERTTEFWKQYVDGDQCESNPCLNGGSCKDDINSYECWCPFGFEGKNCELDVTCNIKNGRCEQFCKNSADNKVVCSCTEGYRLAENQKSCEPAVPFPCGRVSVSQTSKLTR
Chain of Coagulation factor IX (P00740 227-461 limits assumed): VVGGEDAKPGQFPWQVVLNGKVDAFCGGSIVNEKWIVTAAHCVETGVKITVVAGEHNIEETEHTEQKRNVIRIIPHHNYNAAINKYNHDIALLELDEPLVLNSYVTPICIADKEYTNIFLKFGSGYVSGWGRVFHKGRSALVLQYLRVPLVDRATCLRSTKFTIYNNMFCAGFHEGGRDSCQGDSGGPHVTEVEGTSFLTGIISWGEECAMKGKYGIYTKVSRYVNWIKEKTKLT

[5] = AUC (0 to infinity) in Wistar rat at 22 umol/kg, po measured upto 24 hrs by LC-MS/MS analysis; format: ADME, organism-based; design: dose 22 umol/kg, time infinity, route oral; conditions: in vivo
[6] = MRT in Wistar rat at 6.6 umol/kg, iv measured upto 24 hrs by LC-MS/MS analysis; format: ADME, organism-based; conditions: in vivo
[7] = biological target: Tissue-type plasminogen activator (Homo sapiens, UniProt P00750); experiment: Inhibition of human tPA using […] tPA substrate incubated for 15 mins followed by substrate addition and measured after 1 hr by chromogenic assay
Chain of Tissue-type plasminogen activator (P00750 whole entry): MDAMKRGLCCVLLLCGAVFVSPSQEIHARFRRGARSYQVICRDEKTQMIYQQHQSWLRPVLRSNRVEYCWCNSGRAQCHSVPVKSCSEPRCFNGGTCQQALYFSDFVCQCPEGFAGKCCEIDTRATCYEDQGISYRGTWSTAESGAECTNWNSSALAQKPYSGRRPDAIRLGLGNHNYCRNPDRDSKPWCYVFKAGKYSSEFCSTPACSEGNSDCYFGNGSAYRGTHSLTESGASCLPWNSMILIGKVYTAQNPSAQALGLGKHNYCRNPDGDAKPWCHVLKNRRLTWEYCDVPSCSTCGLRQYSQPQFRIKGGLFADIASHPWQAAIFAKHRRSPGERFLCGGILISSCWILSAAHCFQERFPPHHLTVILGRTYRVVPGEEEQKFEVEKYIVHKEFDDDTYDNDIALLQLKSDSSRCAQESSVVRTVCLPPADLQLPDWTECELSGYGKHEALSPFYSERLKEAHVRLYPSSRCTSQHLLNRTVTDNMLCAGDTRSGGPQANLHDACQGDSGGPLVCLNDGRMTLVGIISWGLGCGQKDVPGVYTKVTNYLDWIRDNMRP

[8] = Volume of distribution in Wistar rat at 6.6 umol/kg, iv measured upto 24 hrs by LC-MS/MS analysis; format: ADME, organism-based; conditions: in vivo
[9] = biological target: Urokinase-type plasminogen activator (Homo sapiens, UniProt P00749); experiment: Inhibition of human uPA using […] uPA substrate incubated for 15 mins followed by substrate addition and measured after 1 hr by chromogenic assay
[10] = Half life in Wistar rat at 6.6 umol/kg, iv measured upto 24 hrs by LC-MS/MS analysis; format: ADME, organism-based; conditions: in vivo
Rattus norvegicus [11] = species on record: Rattus norvegicus; remark: listed apart in the source; further: test concentration or dose not given here
Coagulation factor X = Coagulation factor X (Homo sapiens, UniProt P00742); experiment: Inhibition of human activated Factor X using S-2765 as substrate incubated for 15 mins followed by substrate addition and measured after 1 hr by chromogenic assay
Chain of Coagulation factor X (P00742 41-179 limits assumed): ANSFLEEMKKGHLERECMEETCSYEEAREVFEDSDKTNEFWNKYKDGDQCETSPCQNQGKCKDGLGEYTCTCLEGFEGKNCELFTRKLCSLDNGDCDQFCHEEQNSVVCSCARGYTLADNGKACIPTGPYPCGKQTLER
Chain of Coagulation factor X (P00742 235-488 limits assumed): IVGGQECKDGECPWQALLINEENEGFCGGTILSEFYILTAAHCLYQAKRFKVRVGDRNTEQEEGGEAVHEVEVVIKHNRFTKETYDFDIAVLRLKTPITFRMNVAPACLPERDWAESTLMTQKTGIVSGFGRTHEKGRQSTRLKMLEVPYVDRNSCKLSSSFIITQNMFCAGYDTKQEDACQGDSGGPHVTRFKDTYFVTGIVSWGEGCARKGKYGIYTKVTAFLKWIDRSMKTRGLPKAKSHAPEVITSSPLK

[12] = Oral bioavailability in Wistar rat at 22 umol/kg measured upto 24 hrs by LC-MS/MS analysis; format: ADME, organism-based; conditions: in vivo
[13] = Cmax in Wistar rat at 22 umol/kg, po measured upto 24 hrs by LC-MS/MS analysis; format: ADME, organism-based; design: dose 22 umol/kg, route oral; conditions: in vivo
Coagulation factor VII = biological target: T1, Coagulation factor VII (Homo sapiens, UniProt P08709); experiment: Inhibition of human activated Factor VII using S-2288 as substrate incubated for 15 mins followed by substrate addition and measured after 1 hr by chromogenic assay
T1 sequence (P08709 whole entry): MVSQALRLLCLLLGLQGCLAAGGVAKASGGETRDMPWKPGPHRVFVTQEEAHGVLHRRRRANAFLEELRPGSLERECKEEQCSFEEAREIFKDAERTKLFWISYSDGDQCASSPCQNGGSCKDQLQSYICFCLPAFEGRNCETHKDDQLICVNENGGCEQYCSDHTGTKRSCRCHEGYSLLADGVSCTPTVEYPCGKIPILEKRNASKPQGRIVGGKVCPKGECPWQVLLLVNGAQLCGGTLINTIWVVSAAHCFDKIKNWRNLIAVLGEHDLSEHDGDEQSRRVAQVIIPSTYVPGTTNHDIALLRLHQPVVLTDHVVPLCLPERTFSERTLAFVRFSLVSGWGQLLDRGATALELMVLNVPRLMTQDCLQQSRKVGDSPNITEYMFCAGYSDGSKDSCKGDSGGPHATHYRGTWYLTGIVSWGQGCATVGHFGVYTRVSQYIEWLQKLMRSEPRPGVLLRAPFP

Coagulation factor XI = Coagulation factor XI (Homo sapiens, UniProt P03951); experiment: Inhibition of human activated Factor XI using S-2366 as substrate incubated for 15 mins followed by substrate addition and measured after 1 hr by chromogenic assay
Chain of Coagulation factor XI (P03951 19-387 limits assumed): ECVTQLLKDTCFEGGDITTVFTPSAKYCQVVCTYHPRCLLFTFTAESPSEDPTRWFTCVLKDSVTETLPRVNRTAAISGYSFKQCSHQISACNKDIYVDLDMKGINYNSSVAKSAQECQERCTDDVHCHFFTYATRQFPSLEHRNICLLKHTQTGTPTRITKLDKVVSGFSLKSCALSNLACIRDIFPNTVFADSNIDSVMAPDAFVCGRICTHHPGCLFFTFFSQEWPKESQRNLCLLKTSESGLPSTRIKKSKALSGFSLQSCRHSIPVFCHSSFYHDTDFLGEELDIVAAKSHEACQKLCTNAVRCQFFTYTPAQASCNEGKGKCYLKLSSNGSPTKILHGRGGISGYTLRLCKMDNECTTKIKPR
Chain of Coagulation factor XI (P03951 388-625 limits assumed): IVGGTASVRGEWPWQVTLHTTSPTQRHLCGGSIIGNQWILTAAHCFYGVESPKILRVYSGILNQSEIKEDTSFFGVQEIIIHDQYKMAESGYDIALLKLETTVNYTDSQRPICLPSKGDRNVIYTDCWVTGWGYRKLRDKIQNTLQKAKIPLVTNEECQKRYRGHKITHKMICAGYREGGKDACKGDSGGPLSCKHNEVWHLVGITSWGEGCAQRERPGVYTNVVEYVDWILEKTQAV

[14] = biological target: Chymotrypsin (Rattus norvegicus); experiment: Inhibition of rat chymotrypsin using S-2586 as substrate incubated for 15 mins followed by substrate addition and measured after 1 hr by chromogenic assay
[15] = Half life in Wistar rat at 22 umol/kg, po measured upto 24 hrs by LC-MS/MS analysis; format: ADME, organism-based; conditions: in vivo
Rattus norvegicus [16] = species on record: Rattus norvegicus; remark: listed apart in the source; further: test concentration or dose not given here
[17] = Clearance in Wistar rat at 22 umol/kg, po measured upto 24 hrs by LC-MS/MS analysis; format: ADME, organism-based; conditions: in vivo
Coagulation factor XII = biological target: T2, Coagulation factor XII (Homo sapiens, UniProt P00748); experiment: Inhibition of human activated Factor XII using spectrozyme F XIIa as substrate incubated for 15 mins followed by substrate addition and measured after 1 hr by chromogenic assay
T2 sequence (P00748 whole entry): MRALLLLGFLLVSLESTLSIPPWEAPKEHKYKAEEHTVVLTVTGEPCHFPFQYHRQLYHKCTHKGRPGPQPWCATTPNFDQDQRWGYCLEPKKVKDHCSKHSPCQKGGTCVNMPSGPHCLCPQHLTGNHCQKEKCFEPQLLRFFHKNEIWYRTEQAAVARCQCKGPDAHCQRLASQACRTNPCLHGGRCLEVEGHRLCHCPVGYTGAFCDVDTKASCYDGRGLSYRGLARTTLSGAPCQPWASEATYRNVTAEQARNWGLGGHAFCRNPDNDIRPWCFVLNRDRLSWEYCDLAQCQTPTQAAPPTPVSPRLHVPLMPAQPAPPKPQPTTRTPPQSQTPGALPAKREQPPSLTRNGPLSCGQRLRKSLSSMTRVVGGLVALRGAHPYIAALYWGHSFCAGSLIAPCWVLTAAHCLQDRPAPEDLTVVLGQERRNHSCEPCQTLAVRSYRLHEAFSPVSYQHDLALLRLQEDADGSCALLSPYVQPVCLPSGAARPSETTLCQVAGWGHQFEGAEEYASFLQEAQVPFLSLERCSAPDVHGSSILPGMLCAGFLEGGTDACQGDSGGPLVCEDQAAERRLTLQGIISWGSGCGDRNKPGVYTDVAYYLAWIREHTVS

[18] = MRT in Wistar rat at 22 umol/kg, po measured upto 24 hrs by LC-MS/MS analysis; format: ADME, organism-based; conditions: in vivo

For `CCOC(=O)[C@]1(C)CCC[C@@]2(C)[C@@H]3CC[C@@]4(C)C[C@]3(CC[C@@H]21)C/C4=N\OCC1(C)COC1`, the Ki (Trypsin) was 0.331 µM, the Ki (Plasma kallikrein) was 0.277 µM and the Vd [1] was 12.5 L. The AUC(0-inf) [2] was 3380 ng·h/mL, the PT (Rattus norvegicus [3]) was 18.2 s and the clearance [4] was 15 mL/min. It also gave a Ki (Coagulation factor IX) of 4.76 µM, an AUC(0-inf) [5] of 4810 ng·h/mL and an MRT [6] of 4.9 h. The Ki [7] was 2.83 µM, the Vd [8] was 4.3 L and the Ki [9] was 2.03 µM. The half-life [10] was 3.4 h, the TT (Rattus norvegicus [11]) was 22 min and the Ki (Coagulation factor X) was 0.028 µM. For the same molecule, the bioavailability [12] was 42.7%, the Cmax [13] was 728 ng/mL and the Ki (Coagulation factor VII) was 7.99 µM. It also gave a Ki (Coagulation factor XI) of 1.94 µM, a Ki [14] of 12.378 µM and a half-life [15] of 4.2 h. For the same molecule, the APTT (Rattus norvegicus [16]) was 20.6 s, the CL/F [17] was 35 mL/min and the Ki (Coagulation factor XII) was 7.64 µM. It also gave an MRT [18] of 5.6 h.

`CCOC(=O)[C@]1(C)CCC[C@@]2(C)[C@@H]3CC[C@@]4(C)C[C@]3(CC[C@@H]21)C/C4=N\OCc1ccsc1` gave a Ki (Trypsin) of 2.13 µM, a Ki (Plasma kallikrein) of 2.21 µM and a Vd [1] of 10.2 L. It also gave an AUC(0-inf) [2] of 3410 ng·h/mL, a PT (Rattus norvegicus [3]) of 19.1 s and a clearance [4] of 15 mL/min. It also gave a Ki (Coagulation factor IX) of 19.7 µM, an AUC(0-inf) [5] of 5530 ng·h/mL and an MRT [6] of 4.6 h. For the same molecule, the Ki [7] was 3.53 µM, the Vd [8] was 4 L and the Ki [9] was 4.43 µM. It also gave a half-life [10] of 3.2 h, a TT (Rattus norvegicus [11]) of 25.5 min and a Ki (Coagulation factor X) of 0.015 µM. For the same molecule, the bioavailability [12] was 48.6%, the Cmax [13] was 1250 ng/mL and the Ki (Coagulation factor VII) was 11.6 µM. It also gave a Ki (Coagulation factor XI) of 1.7 µM, a Ki [14] of 16.262 µM and a half-life [15] of 3.9 h. The APTT (Rattus norvegicus [16]) was 21.3 s, the CL/F [17] was 30 mL/min and the Ki (Coagulation factor XII) was 9.29 µM. It also gave an MRT [18] of 4.1 h.
